The CheMixHub ionic liquid set
± gives the uncertainty stated by the source.

Assay: xn = mol fraction of the nth substance listed

CC[N+](CC)(CC)CC.[Cl-] + CC1(C)CC(O)CC(C)(C)N1[O] + O
Conditions | electrical conductivity [S/m]
323.15 K, 100 kPa, frequency 0.001 MHz, x2 = 0, x1 = 0.2 | 4.1 ± 0.2

CCCn1cc[n+](C)c1.[Br-] + CC1COC(=O)O1
298 K, 101 kPa
Conditions | electrical conductivity [S/m]
x2 = 0.1 | 0.04 ± 0.03
x2 = 0.64 | 0.5 ± 0.04
x2 = 0.67 | 0.52 ± 0.04
x2 = 0.72 | 0.58 ± 0.05

CC[n+]1ccn(C)c1C.O=S(=O)([N-]S(=O)(=O)C(F)(F)F)C(F)(F)F + CC1COC(=O)O1
101.3 kPa
Conditions | viscosity [mPa·s]
303.15 K, x1 = 0.203 | 5.35 ± 0.11
303.15 K, x1 = 0.5825 | 20.07 ± 0.42
313.15 K, x1 = 0.7004 | 19.96 ± 0.42
318.15 K, x1 = 0.3994 | 7.33 ± 0.15
318.15 K, x1 = 0.5149 | 10.82 ± 0.23
318.15 K, x1 = 0.8032 | 21.86 ± 0.46
323.15 K, x1 = 0.1025 | 2.411 ± 0.051
323.15 K, x1 = 0.5149 | 9.41 ± 0.2
323.15 K, x1 = 0.7004 | 15.48 ± 0.32
328.15 K, x1 = 0.203 | 3.199 ± 0.067
328.15 K, x1 = 0.8032 | 16.86 ± 0.35
333.15 K, x1 = 0.3994 | 5.29 ± 0.11
338.15 K, x1 = 0.3078 | 3.726 ± 0.078
343.15 K, x1 = 0.3994 | 4.376 ± 0.092
343.15 K, x1 = 0.5825 | 6.93 ± 0.15
343.15 K, x1 = 0.8903 | 13.67 ± 0.29
348.15 K, x1 = 0.1025 | 1.651 ± 0.035
348.15 K, x1 = 0.7004 | 8.13 ± 0.17

CCCCc1n(S(=O)(=O)O)cc[n+]1S(=O)(=O)O.O=C([O-])C(F)(F)F + CC#N
101 kPa
Conditions | electrical conductivity [S/m]
278.15 K, x1 = 0.02551 | 1.24 ± 0.025
283.15 K, x1 = 0.02551 | 1.19 ± 0.024
288.15 K, x1 = 0.02551 | 1.07 ± 0.021
293.15 K, x1 = 0.02551 | 0.944 ± 0.019
298.15 K, x1 = 0.0052 | 0.359 ± 0.007
298.15 K, x1 = 0.0104 | 0.425 ± 0.009
298.15 K, x1 = 0.0155 | 0.554 ± 0.011
298.15 K, x1 = 0.0205 | 0.632 ± 0.013
298.15 K, x1 = 0.0255 | 0.899 ± 0.018
298.15 K, x1 = 0.02551 | 0.899 ± 0.018
303.15 K, x1 = 0.02551 | 0.665 ± 0.013
308.15 K, x1 = 0.02551 | 0.646 ± 0.013
313.15 K, x1 = 0.02551 | 0.545 ± 0.011
318.15 K, x1 = 0.02551 | 0.521 ± 0.01
323.15 K, x1 = 0.02551 | 0.468 ± 0.009
328.15 K, x1 = 0.02551 | 0.457 ± 0.009
333.15 K, x1 = 0.02551 | 0.423 ± 0.008

CC[N+](CC)(CC)CC.[Cl-] + CC(=O)CCC(=O)O
101.3 kPa, x1 = 0.3333
Conditions | viscosity [mPa·s]
298.15 K | 140 ± 19
308.15 K | 83.8 ± 5.8
318.15 K | 52.7 ± 0.82
328.15 K | 33 ± 1.1
338.15 K | 20.23 ± 0.7

C[N+](C)(CCO)Cc1ccccc1.[Cl-] + CC(=O)CCC(=O)O
101.33 kPa, x1 = 0.3333
Conditions | viscosity [mPa·s]
293.15 K | 2026 ± 100
298.15 K | 1235 ± 57
303.15 K | 785 ± 33
308.15 K | 518 ± 19
313.15 K | 353 ± 12
318.15 K | 248 ± 8
323.15 K | 179 ± 5
328.15 K | 133 ± 4
333.15 K | 101 ± 3
338.15 K | 78 ± 2
343.15 K | 61 ± 2
348.15 K | 49 ± 1
353.15 K | 40 ± 1

CCCn1cc[n+](C)c1.[Br-] + CC(=O)N(C)C
298.15 K, 101 kPa
Conditions | viscosity [mPa·s]
x1 = 0.01714 | 1.124 ± 0.024
x2 = 0.9358 | 1.653 ± 0.036
x2 = 0.9583 | 1.383 ± 0.03

CCCC[n+]1ccn(C)c1.N#C[N-]C#N + CC(=O)[O-].[K+] + O
viscosity [mPa·s], 101 kPa
Conditions | 298.15 K | 308.15 K | 318.15 K | 323.15 K
x2 = 0.1831, x3 = 0.8019 | 8.2 ± 1.8 | 6 ± 1.5 | – | –
x2 = 0.1943, x3 = 0.7933 | 10 ± 2.1 | 7.2 ± 1.6 | 5.4 ± 1.1 | 4.815 ± 0.069

CC(=O)[O-].CC[n+]1ccn(C)c1 + CC(=O)[O-].[NH4+]
323.15 K, 101 kPa, x2 = 0
Conditions | electrical conductivity [S/m] | viscosity [mPa·s]
– | 0.918 ± 0.018 | 35.7 ± 2.3

CCCN + CC(C)(C)O + CCCCCC[n+]1ccn(C)c1.F[B-](F)(F)F
298.15 K, 101 kPa
Conditions | viscosity [mPa·s]
x2 = 0.0474, x1 = 0.3489 | 46.28 ± 0.97
x2 = 0.0483, x1 = 0.4517 | 28.58 ± 0.49
x2 = 0.05, x1 = 0.0708 | 120.9 ± 4.6
x2 = 0.05, x1 = 0.8998 | 0.723 ± 0.007
x2 = 0.0508, x1 = 0.2562 | 66.1 ± 1.6
x2 = 0.0508, x1 = 0.8482 | 1.318 ± 0.013
x2 = 0.0525, x1 = 0.7484 | 3.959 ± 0.042
x2 = 0.0529, x1 = 0.6504 | 8.74 ± 0.1
x2 = 0.055, x1 = 0.5488 | 16.3 ± 0.23
x2 = 0.0572, x1 = 0.1668 | 88.1 ± 2.7
x2 = 0.1042, x1 = 0.1719 | 73.7 ± 2
x2 = 0.1487, x1 = 0.0497 | 96.6 ± 3.1
x2 = 0.1555, x1 = 0.1488 | 66.7 ± 1.7
x2 = 0.247, x1 = 0.0423 | 72.1 ± 1.9
x2 = 0.251, x1 = 0.3468 | 15.17 ± 0.21
x2 = 0.3138, x1 = 0.0592 | 53 ± 1.2
x2 = 0.3494, x1 = 0.5505 | 1.808 ± 0.018
x2 = 0.3508, x1 = 0.5993 | 1.244 ± 0.012
x2 = 0.3529, x1 = 0.349 | 7.072 ± 0.087
x2 = 0.3545, x1 = 0.4468 | 2.923 ± 0.03
x2 = 0.3596, x1 = 0.0184 | 53.2 ± 1.2
x2 = 0.4492, x1 = 0.1454 | 18.61 ± 0.28
x2 = 0.4496, x1 = 0.0492 | 32.35 ± 0.59
x2 = 0.6483, x1 = 0.1509 | 7.984 ± 0.092
x2 = 0.6496, x1 = 0.2508 | 4.06 ± 0.043
x2 = 0.6511, x1 = 0.299 | 2.994 ± 0.03
x2 = 0.6551, x1 = 0.0445 | 15.43 ± 0.21
x2 = 0.7929, x1 = 0.1032 | 7.67 ± 0.087
x2 = 0.8001, x1 = 0.15 | 5.198 ± 0.056
x2 = 0.8965, x1 = 0.0518 | 7.226 ± 0.081

CC[N+](CC)(CC)CC.[Cl-] + CCCCCCCCCC(=O)O
100 kPa, x1 = 0.333
Conditions | electrical conductivity [S/m] | viscosity [mPa·s]
293.15 K | 0.0223 ± 0.0022 | 275 ± 61
303.15 K | 0.0338 ± 0.0034 | 185 ± 32
313.15 K | 0.0498 ± 0.005 | 128 ± 16
323.15 K | 0.0718 ± 0.0072 | 90 ± 7.1
333.15 K | 0.101 ± 0.01 | 64.9 ± 2.5

OC[C@H]1O[C@H](O[C@H]2[C@H](O)[C@@H](O)C(O)O[C@@H]2CO)[C@H](O)[C@@H](O)[C@@H]1O (stereo partly drawn) + CCCCCCCCCCCCCCCC[N+](C)(C)C.[Br-] + O
viscosity [mPa·s], 100 kPa
Conditions | 298.15 K | 308.15 K | 318.15 K
x2 = 7.13e-06, x1 = 0.002703 | 1.07 ± 0.062 | 0.885 ± 0.063 | 0.734 ± 0.061
x2 = 7.15e-06, x1 = 0.002359 | 1.048 ± 0.062 | 0.867 ± 0.061 | 0.719 ± 0.061
x2 = 7.16e-06, x1 = 0.001637 | 1.002 ± 0.062 | 0.829 ± 0.061 | 0.688 ± 0.061
x2 = 7.16e-06, x1 = 0.001964 | 1.023 ± 0.062 | 0.846 ± 0.061 | 0.702 ± 0.061
x2 = 7.18e-06, x1 = 0.0009633 | 0.958 ± 0.061 | 0.793 ± 0.061 | 0.659 ± 0.061
x2 = 7.18e-06, x1 = 0.001278 | 0.978 ± 0.061 | 0.809 ± 0.061 | 0.672 ± 0.061
x2 = 1.423e-05, x1 = 0.002657 | 1.073 ± 0.062 | 0.888 ± 0.062 | 0.736 ± 0.061
x2 = 1.424e-05, x1 = 0.002424 | 1.058 ± 0.062 | 0.875 ± 0.062 | 0.726 ± 0.061
x2 = 1.428e-05, x1 = 0.001986 | 1.029 ± 0.062 | 0.851 ± 0.061 | 0.706 ± 0.061
x2 = 1.43e-05, x1 = 0.001593 | 1.003 ± 0.062 | 0.83 ± 0.061 | 0.688 ± 0.061
x2 = 1.433e-05, x1 = 0.001228 | 0.979 ± 0.061 | 0.81 ± 0.061 | 0.672 ± 0.061
x2 = 1.435e-05, x1 = 0.0009418 | 0.96 ± 0.061 | 0.795 ± 0.061 | 0.659 ± 0.061
x2 = 2.126e-05, x1 = 0.002693 | 1.08 ± 0.062 | 0.894 ± 0.063 | 0.74 ± 0.061
x2 = 2.128e-05, x1 = 0.002482 | 1.066 ± 0.062 | 0.882 ± 0.062 | 0.73 ± 0.061
x2 = 2.135e-05, x1 = 0.001972 | 1.032 ± 0.062 | 0.854 ± 0.061 | 0.707 ± 0.061
x2 = 2.141e-05, x1 = 0.001636 | 1.01 ± 0.062 | 0.835 ± 0.061 | 0.692 ± 0.061
x2 = 2.143e-05, x1 = 0.001347 | 0.99 ± 0.061 | 0.819 ± 0.061 | 0.678 ± 0.061
x2 = 2.15e-05, x1 = 0.0008556 | 0.957 ± 0.061 | 0.792 ± 0.061 | 0.656 ± 0.061

NCC(=O)O + CCCCCCCCCCCCCCCC[n+]1ccccc1.[Cl-] + O
308.15 K, 101 kPa
Conditions | electrical conductivity [S/m]
x1 = 2.018e-05, x2 = 0 | 6.2e-05 ± 1e-06
x1 = 0.0002, x2 = 0 | 0.000171 ± 2e-06
x1 = 0.0003639, x2 = 0 | 0.000413 ± 4e-06
x1 = 0.0009182, x2 = 0 | 0.00011 ± 1e-06
x1 = 0.001802, x2 = 0 | 0.000292 ± 3e-06
